Conditions: Fluid (supercritical or subcritical phases), Buoyancy - hydrostatic balance with magnetic suspension - one sinker

C [methane]
Conditions	mass density [kg/m3]
298.14 K, 20012 kPa	157.172
298.14 K, 29958 kPa	212.508
298.14 K, 35056 kPa	232.422
298.14 K, 49959 kPa	273.189
298.14 K, 99874 kPa	342.269
298.14 K, 124934 kPa	363.139
298.14 K, 150062 kPa	380.039
298.14 K, 159617 kPa	385.731
298.14 K, 170054 kPa	391.531
298.14 K, 185333 kPa	399.489
298.14 K, 186931 kPa	400.257
298.14 K, 188059 kPa	400.837
298.15 K, 10010 kPa	76.08
298.15 K, 79980 kPa	321.098
298.16 K, 1012 kPa	6.665
298.16 K, 66961 kPa	303.605
298.19 K, 5009 kPa	35.316
298.25 K, 14994 kPa	118.506
305.23 K, 9993 kPa	72.932
305.23 K, 49968 kPa	267.232
305.23 K, 60012 kPa	287.019
305.23 K, 79855 kPa	316.163
305.23 K, 99904 kPa	337.939
305.23 K, 124930 kPa	359.159
305.23 K, 149862 kPa	376.248
305.24 K, 1002 kPa	6.404
305.24 K, 2000 kPa	13.031
305.24 K, 5001 kPa	34.173
305.24 K, 6897 kPa	48.435
305.24 K, 15006 kPa	113.44
305.24 K, 20696 kPa	155.024
305.24 K, 29976 kPa	205.443
305.24 K, 34563 kPa	223.779
305.24 K, 69988 kPa	302.917
338.04 K, 6905 kPa	42.093
338.05 K, 5000 kPa	29.983
338.05 K, 34473 kPa	195.446
338.06 K, 70001 kPa	280.639
338.07 K, 124895 kPa	341.685
338.07 K, 149542 kPa	359.787
338.08 K, 1004 kPa	5.782
338.08 K, 2004 kPa	11.667
338.08 K, 15026 kPa	95.246
338.08 K, 20687 kPa	130.132
338.08 K, 30005 kPa	177.38
338.08 K, 50031 kPa	241.969
338.08 K, 59971 kPa	263.229
338.09 K, 164905 kPa	369.665
338.1 K, 9969 kPa	62.054
338.1 K, 80310 kPa	295.61
338.11 K, 99908 kPa	318.744
338.12 K, 179829 kPa	378.164
399.94 K, 89964 kPa	274.637
399.97 K, 59973 kPa	225.951
399.98 K, 1002 kPa	4.86
399.98 K, 30014 kPa	141.158
399.99 K, 15027 kPa	74.789
400 K, 50037 kPa	203.469
400 K, 79920 kPa	260.652
400.01 K, 2001 kPa	9.744
400.01 K, 6915 kPa	34.195
400.01 K, 10002 kPa	49.746
400.02 K, 20675 kPa	101.642
400.02 K, 124882 kPa	312.062
400.02 K, 149627 kPa	332.136
400.03 K, 13795 kPa	68.723
400.04 K, 34510 kPa	157.64
400.04 K, 69978 kPa	244.725
400.07 K, 5005 kPa	24.61
400.09 K, 99984 kPa	286.8
450 K, 2009 kPa	8.61
450.01 K, 20697 kPa	87.478
450.01 K, 99932 kPa	264.608
450.02 K, 89981 kPa	251.923
450.02 K, 119918 kPa	286.376
450.03 K, 59975 kPa	202.137
450.03 K, 139476 kPa	304.187
450.05 K, 30002 kPa	121.791
450.06 K, 50036 kPa	179.955
450.06 K, 69966 kPa	221.073
450.08 K, 80008 kPa	237.571
450.09 K, 6886 kPa	29.741
450.12 K, 34492 kPa	136.647
